Laboratory results from US20240043531A1, “ANTI-CD47 MONOCLONAL ANTIBODY AND USE THEREOF” (Akeso Biopharma, Inc., priority 2021, published 2024).

Assays:
[1] = tested on: acute myelocytic leukemia (AML) HL-60 cells; assay: ADCP: phagocytosis of HL-60 cells by HPMMs, combination with azacitidine; format: cell-based, human; settings: HPMMs effector, HL-60 target cells treated with azacitidine 3 μM or 1 μM for 24 h; antibodies 10 μg/mL and 1 μg/mL; FIG. 2
Text: (§1) Materials: Azacitidine (purchased from Baxter Oncology GmbH); Hu5F9-G4 (supplied by Akeso Biopharma, Inc.); Raji cells (Chinese Academy of Sciences Shanghai Branch); HL-60 cells (ATCC); RPMI 1640 (Gibco, Cat. No: 22400-105); pancreatin (0.25% Typsin-EDTA (1×)) (Gibco, Cat. No: 25200072); fetal bovine serum (FBS; Excell bio, Cat. No: FSP500); fluorescent dye […] diacetatesuccinimidyl ester (CFSE; Biolegend, Cat. No: 423801); recombinant human macrophage colony-stimulating factor (human M-CSF; PeproTech, Cat. No: 300-25); APC anti-human CD11c antibody (Biolegend, Cat. No: 301614); isotype control (human IgG4; supplied by Akeso Biopharma, Inc.); rituximab (Roche); BSA (Sigma, Cat. No: V900933-1KG); Ficoll paque plus (GE, Cat. No: 17-1440-02). Human peripheral monocyte-derived macrophages (HPMMs) were prepared by inducing PBMCs. Frozen PBMCs were conventionally thawed and incubated in an incubator overnight. […]
Procedures: HL-60 cells were conventionally collected and plated in a 6-well plate at 4×10^5 cells/2 mL of 1640 complete medium per well. […] The next day, the treated and blank HL-60 cells were collected, centrifuged at 170×g for 5 min, resuspended and counted. Then the cells were analyzed for viability and washed once with PBS. […]

[2] = tested on: human ovarian cancer SK-OV-3 cells; assay: Immune cell activation: PBMCs with Raji-PDL1 and SK-OV-3 cells, cytokine ELISA; format: cell-based; settings: SEB-activated PBMCs + Raji-PDL1 + SK-OV-3 cells, 3 days; FIG. 5
[3] = tested on: human prostate cancer LNCAP cells; assay: Immune cell activation: PBMCs with Raji-PDL1 and LNCAP cells, cytokine ELISA; format: cell-based; settings: SEB-activated PBMCs + Raji-PDL1 + LNCAP cells, 3 days; FIG. 6
[4] = tested on: human lung adenocarcinoma A549 cells; assay: Immune cell activation: PBMCs with Raji-PDL1 and A549 cells, cytokine ELISA; format: cell-based; settings: SEB-activated PBMCs + Raji-PDL1 + A549 cells, 3 days; FIG. 4
[5] = tested on: Burkitt's lymphoma Raji cells; assay: ADCP: phagocytosis of Raji cells by HPMMs, combination with rituximab; format: cell-based, human; settings: HPMMs effector, Raji target cells, 37° C. 2 h, flow cytometry; FIG. 1
Text: as §1, with “overnight. The next day, PBMCs were collected, centrifuged at 170×g for 5 min, resuspended in a 1640 medium containing 2% FBS, and incubated in an incubator for 2 h.” for “overnight.”
Procedures: Raji cells in the logarithmic phase were conventionally collected, centrifuged at 170×g for 5 min, resuspended and then washed once with PBS. […] 200 μL of 1% PBSA was added to each tube for resuspension, and the cells were detected on an FACS Calibur flow cytometer. […]

[6] = target: T1, CD47 IgV TEV-His (human CD47 mature peptide of positions 19-141 of NP_942088.1, TEV, his tag fusion protein) (human, UniProt Q08722 19-141); assay: indirect ELISA screening with CD47 IgV TEV-His as antigen
T1 construct: range 19-141; Synthesized by Akeso Biopharma; not shown: his tag
Text: Spleen cells of immunized mice were fused with myeloma cells of the mice to prepare hybridoma cells.

CD47 IgV TEV-His = target: T2, CD47 IgV TEV-His (Homo sapiens, UniProt Q08722); assay: Indirect ELISA screening for antibodies specifically binding CD47; settings: monoclonal antibody secreted by hybridoma LT012
T2 construct: human CD47 mature peptide of positions 19-141 of GenbankID: NP 942088.1; His tag (C); host or cells: mammalian cell expression system (said in general terms)
Text: (§2) The antigen used for preparing the anti-CD47 antibody with the hybridoma cell line 6F7 was CD47 IgV TEV-His (including human CD47 mature peptide of positions 19-141 of GenbankID: NP 942088.1 and TEV (amino acid sequence: ENLYFQG, SEQ ID NO: 74)-his tag fusion protein, synthesized by Akeso Biopharma, Inc.) and 3T3-CD47 cells (NIH/3T3, manufacturer: ATCC, Cat. No: CRL-1658; the human CD47 mature peptide was transfected into the cells on the basis of NIH/3T3 to construct a cell line stably expressing 3T3-CD47). Spleen cells of immunized mice were fused with myeloma cells of the mice to prepare hybridoma cells. […] The hybridoma cells obtained by ELISA screening were screened by competitive ELISA to obtain a hybridoma cell line capable of secreting a monoclonal antibody capable of competing for binding to CD47 IgV TEV-His with the receptor human SIRPαECD-hFc-Biotin (SIRPαECD refers to the extracellular region of SIRPα, positions 31-373 of protein GenBank ACCESSION No. NP_542970.1; hFc refers to a human IgG Fc purification label, specifically to Ig gamma-1 chain C region, positions 114-330 of GenbankID: P01857), which was then subjected to dilution cloning to obtain a stable hybridoma cell line. The hybridoma cell line was designated hybridoma cell line LT012, and the monoclonal antibody secreted by the cell line was designated 6F7.

[7] = target: T3, CD47 IgV TEV-His / human SIRPαECD-hFc-Biotin (Homo sapiens, UniProt Q08722); assay: Competitive ELISA against receptor SIRPα ECD-hFc-Biotin for binding to CD47
T3 construct: human CD47 mature peptide of positions 19-141 of GenbankID: NP 942088.1; His tag (C); host or cells: mammalian cell expression system (said in general terms, for CD47 only)
Text: as §2

Molecule: Nc1ncn([C@@H]2O[C@H](CO)[C@@H](O)[C@H]2O)c(=O)n1 [azacitidine]
- phagocytic index (ADCP) [1]: significantly higher than those of the blank control and the isotype control (human IgG4)

Molecule: penpulimab: anti-PD-1 antibody; heavy chain SEQ ID NO: 82, light chain SEQ ID NO: 84 [reference compound]
- secretion of IL-2 by PBMC cells [2]: can significantly stimulate the secretion of IL-2
- secretion of IL-2 by PBMC cells [3]: can significantly stimulate the secretion of IL-2
- secretion of IFN-γ by PBMC cells [4]: can significantly stimulate the secretion of IFN-γ

Molecule: rituximab: anti-human CD20 antibody (Roche) [reference compound]
- phagocytic index (ADCP) [5]: significantly higher than those of the blank control and the isotype control (human IgG4)

B1: anti-CD47 monoclonal antibody 6F7 (secreted by hybridoma cell line LT012) (antibody, V domains shown)
VH: QVQLQQPGAELVRPGASVKLSCKASGYTFTSYWMNWVKQRPGQGLEWIGMIDPSDSETHNNQMFKDKATLTVDKSSNTAYMHLSSLTSEDSAVYHCARLYRWYFDVWGAGTTVTVSS
VL: NIVMTQSPKSMSMSLGERVTLSCKASEIVGTYVSWFQQKPHQSPKLLIYGASNRYTGVPDRFTGSGSATDFTLTISNVQAEDLADYHCGQSYNFPYTFGGGTKLEIK
notes: Murine hybridoma antibody; also called CD47-6F7; LT012 antibody
- binding result [6]: binds

B2: 6F7: murine anti-CD47 monoclonal antibody secreted by hybridoma LT012; VH SEQ ID NO: 2, VL SEQ ID NO: 4 (antibody, V domains shown)
VH: QVQLQQPGAELVRPGASVKLSCKASGYTFTSYWMNWVKQRPGQGLEWIGMIDPSDSETHNNQMFKDKATLTVDKSSNTAYMHLSSLTSEDSAVYHCARLYRWYFDVWGAGTTVTVSS
VL: NIVMTQSPKSMSMSLGERVTLSCKASEIVGTYVSWFQQKPHQSPKLLIYGASNRYTGVPDRFTGSGSATDFTLTISNVQAEDLADYHCGQSYNFPYTFGGGTKLEIK
modifications: Synthetic artificial sequence-Amino acid sequence of the heavy chain variable region of 6F7; Synthetic artificial sequence-Amino acid sequence of the variable region of the light chain of 6F7
- specific binding to CD47 (CD47 IgV TEV-His): capable of specifically binding to CD47
- competition with SIRPα ECD-hFc-Biotin for binding to CD47 [7]: can compete with the receptor SIRPα ECD-hFc-Biotin for binding to CD47
